Results as given in ChEMBL document CHEMBL1201862, “PubChem BioAssay data set” (2004).
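Tested at 5 concentrations; 48 h exposure; 96-well plates; endpoints linearly interpolated, else capped at highest concentration. Abbreviation: GI50, concentration required for 50% inhibition of growth.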 Calls of active or inactive are those of the source. Cut-off read from the data, not from the text of the source: active = GI50 up to about 1.1 µM and inactive = higher.

Tests used:
Experiment in all cases: NCI anticancer screen, dose series, 48 h
DLD-1 = test system: DLD-1
DMS-114 = test system: DMS-114
HOP-18 = test system: HOP-18
KM-20L2 = test system: KM-20L2
LXFL 529 = test system: LXFL 529
RXF 631 = test system: RXF 631
SNB-78 = test system: SNB-78
XF498 = test system: XF498
DMS-273 = test system: DMS-273

Structure (SMILES)	GI50 (DLD-1)	GI50 (DMS-114)	GI50 (HOP-18)	GI50 (KM-20L2)	GI50 (LXFL 529)	GI50 (RXF 631)	GI50 (SNB-78)	GI50 (XF498)	GI50 (DMS-273)
CC(C)(c1ccc(Oc2ccc(C#N)c(C#N)c2)cc1)c1ccc(Oc2ccc(C#N)c(C#N)c2)cc1	> 10 µM (inactive)	> 10 µM (inactive)	> 10 µM (inactive)	> 10 µM (inactive)	> 10 µM (inactive)	> 10 µM (inactive)	> 10 µM (inactive)	> 10 µM (inactive)	–
COc1cc([C@@H]2c3cc4c(cc3[C@@H](NC(=O)c3cccc(C#N)c3)C3COC(=O)[C@@H]32)OCO4)cc(OC)c1O (some centres undefined)	2 µM (inactive)	–	> 100 µM (inactive)	1.63 µM (inactive)	5.93 µM (inactive)	1.56 µM (inactive)	9.33 µM (inactive)	–	0.0847 µM (active)
COc1cc2c(c(O)c1C)C(=O)CC(c1ccccc1)O2 (centres undefined)	55.2 µM (inactive)	50.7 µM (inactive)	61 µM (inactive)	15.1 µM (inactive)	56.2 µM (inactive)	41.4 µM (inactive)	55.7 µM (inactive)	–	–
Cc1cc(O)nc(NNC(C#N)c2ccco2)n1 (centres undefined)	> 100 µM (inactive)	> 100 µM (inactive)	> 100 µM (inactive)	> 100 µM (inactive)	> 100 µM (inactive)	–	> 100 µM (inactive)	–	> 100 µM (inactive)
CC(C)(C)c1cc([Si](C)(C)C)c(C#N)c([Si](C)(C)C)c1	> 100 µM (inactive)	33.8 µM (inactive)	> 100 µM (inactive)	> 100 µM (inactive)	> 100 µM (inactive)	–	53.2 µM (inactive)	24.2 µM (inactive)	49.1 µM (inactive)
Cc1ccc(Cn2c(C)nc3c2C(=O)c2ccccc2C3=O)cc1	1.22 µM (inactive)	–	–	5.21 µM (inactive)	1.72 µM (inactive)	–	20.3 µM (inactive)	15.1 µM (inactive)	1.07 µM (active)
COc1cc(Nc2nc3ccccc3nc2-c2cccs2)cc(OC)c1OC	23.7 µM (inactive)	–	> 100 µM (inactive)	36.1 µM (inactive)	17.3 µM (inactive)	–	90.6 µM (inactive)	19.2 µM (inactive)	29.2 µM (inactive)
C/C(=N\NC(N)=S)c1ccc(C)c(C)c1	30.9 µM (inactive)	16.6 µM (inactive)	30.6 µM (inactive)	44.7 µM (inactive)	19.4 µM (inactive)	75.3 µM (inactive)	> 100 µM (inactive)	19.4 µM (inactive)	> 100 µM (inactive)
CC(C)N(C(=O)C12CC3CC(CC(C3)C1)C2)C(C)C	> 50 µM (inactive)	> 50 µM (inactive)	> 50 µM (inactive)	> 50 µM (inactive)	> 50 µM (inactive)	–	> 50 µM (inactive)	–	> 50 µM (inactive)
COC12C=CC(CC1)c1c(O)ccc(O)c12 (centres undefined)	50.4 µM (inactive)	47.1 µM (inactive)	> 100 µM (inactive)	82.8 µM (inactive)	25.4 µM (inactive)	–	49.2 µM (inactive)	19.7 µM (inactive)	46 µM (inactive)
CN(C)C(=S)/N=c1\ssc(=S)n1Cc1ccccc1	0.348 µM (active)	0.201 µM (active)	2.22 µM (inactive)	0.195 µM (active)	0.459 µM (active)	–	0.8 µM (active)	0.21 µM (active)	0.25 µM (active)
CC1(C)CC(/C=C2/OC(=O)c3ccccc32)=C(C#N)C(=O)O1	> 100 µM (inactive)	–	–	> 100 µM (inactive)	> 100 µM (inactive)	> 100 µM (inactive)	> 100 µM (inactive)	> 100 µM (inactive)	> 100 µM (inactive)
COc1ccc2nc3ccccc3c(NCCCCCCN(CCCl)CCCl)c2c1	0.109 µM (active)	0.155 µM (active)	–	0.0776 µM (active)	0.107 µM (active)	0.104 µM (active)	0.223 µM (active)	0.136 µM (active)	0.0328 µM (active)
CN(C(=O)c1ccc([N+](=O)[O-])cc1)c1ccccc1	> 100 µM (inactive)	> 10 µM (inactive)	> 100 µM (inactive)	> 100 µM (inactive)	> 100 µM (inactive)	> 100 µM (inactive)	> 100 µM (inactive)	> 100 µM (inactive)	> 100 µM (inactive)
CN(Cc1ccccc1)C1(N(C)Cc2ccccc2)CC1	> 100 µM (inactive)	> 100 µM (inactive)	> 100 µM (inactive)	> 100 µM (inactive)	> 100 µM (inactive)	–	> 100 µM (inactive)	> 100 µM (inactive)	> 100 µM (inactive)
